≈ marks a conversion by molar mass, not a printed value. Entries after “also recorded” stand apart in the source; their conditions may differ.

The test system of assay [1] is IL-1β. Put plainly: R848 stimulated IL-1β production in human whole blood. Type of assay: cell-based. The conditions noted are these: R848, 0.5 ug/mL, 5 hr. How it is done:
Human whole blood assays were performed as described above with the exceptions listed below. […] Compounds were serially diluted in 100% DMSO (Sigma-Aldrich, D2650) followed by a 10× dilution into RPMI (Gibco, 11875). After the one-hour incubation with the compounds or vehicle, 2 μL of R848 (InvivoGen, tlrl-r848) in RPMI (Gibco, 11875) was added for a final concentration of 0.5 μg/mL to each well except for the no stimulus wells. After five hours of incubation with R848, plasma was harvested and assayed for TNF-α, IL-1β, IL-6 and IL-8 using Meso Scale Discovery Technology V-plex human cytokine kits according to the kit protocol.

In assay [2] the test system is TNF-α. Briefly: TLR2 ligand (Pam3) or LPS induced TNF-α in peripheral blood mononuclear cells. The settings on record: 10-10,000 nM. It counts as cell-based. The method, then:
LPS or Pam3 were then added to the designated wells for a final concentration of 100 ng/mL for both (or medium for unstimulated control). After 30 min MSU was added to the designated wells for final concentration of 100 μg/mL (or medium for no-MSU control). After a 6-hour incubation, plates were centrifuged at 500×g for 5 min, and medium was collected from each well for assay. Released TNF-α was measured using Meso Scale Discovery technology, an ELISA-like format with capture and detection antibodies, but with a final readout using electrochemiluminescence.

Assay [3] relates to TNF-α. Put plainly: Ex vivo LPS-stimulated TNF-α in blood of dosed healthy subjects, PK/PD inhibitory Emax model. On the set-up: species or system human. How it is done: Blood samples of 10 mL were collected for PD analysis. For the SAD cohorts, blood was collected before dosing and 1, 12, and 24 hours after dosing. For the MAD cohorts, on day 1 blood was collected before the morning dose and 4 and 12 hours after the morning dose (prior to the evening dose); on day 7, blood was collected before the morning dose and 4 and 12 hours after the morning dose.
Additional details of the assays for analyzing p-HSP27 and cytokines are included in the Supplementary Information.
Pharmacodynamics. PD data analysis was conducted using Microsoft Excel 2010 (Microsoft, Redmond, WA), Meso Scale Discovery Workbench® analysis software (Rockville, MD), and Phoenix WinNonlin, version 8.2.
Sample Preparation for Cytokine Analysis. For each sample, 180 μL aliquots were transferred into 7 wells of a round bottom 96 well tissue culture polystyrene low evaporation plate. […] No outer wells on the plates were used and all wells surrounding the samples contained 200 μL of phosphate buffered saline.
DMSO was added to all wells in groups ‘A’ and ‘C’ to a final concentration of 0.1% ([…] of a 2% DMSO solution in DMEM containing 10% FBS and 1% penicillin/streptomycin/glutamine). […] Samples were mixed gently for 30 seconds on a plate shaker using pin tools, then placed in an incubator at 37° C./5% CO2 for 1 hour.
Samples in groups ‘A’ and ‘B’ were stimulated with lipopolysaccharide at a final concentration of 100 ng/mL. A stock solution of lipopolysaccharide at 1 mg/mL in DMEM containing 10% FBS and 1% penicillin/streptomycin was diluted to […] in DMEM containing 10% FBS and 1% penicillin/streptomycin, and […] of this working solution was added per well of blood for all samples in groups ‘A’ and ‘B’. […] of DMEM containing 10% FBS only was added per well of blood for all samples in group ‘C’ (unstimulated samples). Samples were mixed gently for 30 seconds on a plate shaker using pin tools, then placed in an incubator at 37° C./5% CO2 for 5 hours.
Following the incubation, the plates were removed from the incubator and sealed with adhesive clear plate seals. The plates were then centrifuged for 10 minutes at 1800×g at room temperature. […] of plasma was removed from each well and transferred to a 96-well polypropylene round bottom master plate, which was then sealed and frozen at −80° C. until all samples from the respective cohort were generated. Once all samples from a given cohort were generated, the samples were analyzed for cytokine (TNF-α, IL-1b, IL-6, and IL-8) production using Meso Scale Discovery Technology.
Analysis of Cytokine Levels Using Meso Scale Discovery Technology. All lipopolysaccharide plasma samples were analyzed for cytokine production with a V-Plex Human Proinflammatory Panel II (4-Plex) Kit from Meso Scale Discovery (Rockville, MD). The master plates containing the plasma samples were thawed on ice, and a daughter plate consisting of a 25-fold dilution of each plasma sample (3 μL of plasma plus 72 μL of Meso Scale Discovery Diluent 2) was generated for each master plate. The diluted plasma samples from the daughter plates were used in the cytokine analysis. The Meso Scale Discovery 4-plex plates were washed 3 times with 150 μL/well of wash buffer (1×KPL phosphate buffered saline with Tween 20 from SeraCare [Milford, MA]). Prepared calibrators and the samples from the daughter plates were added to the washed Meso Scale Discovery 4-plex plates at 50 μL/well. The 4-plex plates were sealed and shaken overnight at 4° C.
After the overnight incubation, the samples were removed by decanting. The 4-plex plates were then washed 3 times with 150 μL/well of wash buffer. […]

Assay [4] deals with IL-8. Briefly: IL-1β stimulated IL-8 production in human whole blood. It counts as cell-based. The method, then:
Compounds were serially diluted in 100% DMSO (Sigma-Aldrich, D2650) followed by a 10× dilution into RPMI (Gibco, 11875). After the one-hour incubation with the compounds or vehicle, 2 μL of IL-1β (R&D, 201-LB-010) in RPMI (Gibco, 11875) was added for a final concentration of 0.5 μg/mL to each well except for the no stimulus wells. After six hours of incubation with IL-1β, plasma was harvested and assayed for TNF-α, IL-6 and IL-8 using Meso Scale Discovery Technology V-plex human cytokine kits according to the kit protocol.

Assay [5] has as its system IL-1β. Briefly: LPS stimulated IL-1β production in human whole blood. Type of assay: cell-based. The method, then: Compounds were serially diluted in 100% DMSO (Sigma-Aldrich, D2650) followed by a 50× dilution into DMEM/10% FBS (Gibco, 11965/26140). Vehicle consisted of DMSO at a final assay concentration of 0.1%. Pin tools (V&P Scientific, Inc., VP246) were placed in the wells and the plate was placed at 37° C. with 5% CO2, with gently shaking for five minutes, then pin tools were removed and saved. […] Pin tools were placed in the wells in the same orientation as the previous step and gently shook for five minutes at 37° C. with 5% CO2, then removed. […] The plasma was harvested and assayed for TNF-α, IL-1β, and IL-6 using Meso Scale Discovery Technology V-plex human cytokine kits according to the kit protocol. The kit plates were read using an MSD Sector S 6000 instrument. Calculations to establish cytokine calibration curves and to determine analyte concentrations in the samples were carried out using the MSD DISCOVERY WORKBENCH® analysis software.

The test system of assay [6] is TNF-α, IL-1β, IL-6, and IL-8. Briefly: Phase 2a RA study: ex vivo LPS-stimulated cytokines in patient blood. On the set-up: species or system human. The settings on record: 50 mg BID, 12 weeks.
Assay [7] relates to IL-10. Briefly: Ex vivo stimulated IL-10 in blood of subjects dosed 80 mg or 120 mg. On the set-up: species or system human. The settings on record: 80 mg or 120 mg BID.
Protocol: Methods: Safety, pharmacokinetics (PK) and pharmacodynamics (PD) were assessed in two cohorts of subjects in a randomized, observer-blind, placebo-controlled study in male and female healthy subjects aged 18-55 (n=77). The study consisted of twenty (20) subjects enrolled into 2 cohorts. […] The final dose was administered in the morning on Day 7. Blood samples were obtained Day 1—before dosing, Day 1—4 hours after dosing and Day 1—12 hours after dosing and Day 7—before dosing, Day 7—4 hours after dosing, day 7—12 hour after dosing and Day 7—24 hours after dosing for each subject.

`Cc1cnc(-c2ccnc(C(C)(C)O)n2)cc1-n1c(C)cc(OCc2ncc(F)cc2F)c(Cl)c1=O` (single isomer, unassigned) [ATI-450, 3-chloro-4-((3,5-difluoropyridin-2-yl)methoxy)-2′-(2-(2-hydroxypropan-2-yl)pyrimidin-4-yl)-5′,6-dimethyl-2H-[1,4′-bipyridin]-2-one]: the IC50 in assay [1] was 95.6 ± 34.8 nM; in assay [3] (Homo sapiens, inhibitory Emax model, combined SAD and MAD data, read-out: IC50, plasma concentration at half maximal inhibition), 0.0156 µg/mL; in assay [5] (Human Whole Blood, LPS, 100 ng/mL, 4 or 24 hr, read-out: IC50, IL-1β) it was 6.1 nM; in assay [5] (human whole blood, LPS 100 ng/mL, read-out: IC50, LPS-stimulated IL-1β), 10 to 100 nM. Moreover, the “TLR2 ligand induced TNF-α production” value in assay [2] is “dose dependently inhibits”. In assay [3] (50 mg BID MAD cohort), the “TNF-α inhibition versus baseline” value was “up to 92.7%”. Also, the “Cmax (Multiple of IC80)” value in assay [3] (50 mg BID, day 7) worked out at 3.5x. Further, the “Ctrough (Multiple of IC80)” value in assay [3] (50 mg BID, day 7) stood at 1.4x. The IC80 in assay [3] (Homo sapiens, calculated from IC50, combined SAD and MAD data, read-out: IC80, plasma concentration at 80% of maximal inhibition) was 0.0626 µg/mL; in assay [4], 0.04 ± 0.012 µg/mL (≈ 0.0778 µM). The “IC80, plasma concentration at 80% of maximal inhibition” value in assay [3] (calculated from IC50, combined SAD and MAD data) was 0.0626 µg/mL. The “ex vivo stimulated cytokines in RA patient blood” value in assay [6] was “sustained inhibition of proinflammatory cytokines; also recorded: marked and durable inhibition”. Also, the IL-10 modulation in assay [7] is on record as 25-30%.

Values taken from patent US11844801B2, “Oral compositions of MK2 pathway inhibitor for treatment of immune conditions” (priority 2020, dated 2023).
